The test system of assay [1] is super sensitive Gram-negative Escherichia coli (E. coli) BAS849. In words: Antibacterial activity, microbroth dilution MIC, E. coli BAS849. In kind it is cell-based. The conditions noted are these: Escherichia coli; E. coli BAS849, microbroth dilution; read-out: MIC, BAS849. (Dilution methods test growth across graded concentrations, often in twofold steps.)
For assay [2], the system named is control Gram-negative E. coli 25922 strain. In words: Antibacterial activity, microbroth dilution MIC, E. coli 25922. In kind it is cell-based, Escherichia coli. The conditions noted are these: Escherichia coli; E. coli 25922, microbroth dilution; read-out: MIC, 25922.
For assay [3], the system named is Gram-positive Staphylococcus aureus (S. aureus) 29213. The assay is described as follows: Antibacterial activity, microbroth dilution MIC, S. aureus 29213. In kind it is cell-based. As to conditions: Staphylococcus aureus; S. aureus 29213, microbroth dilution; read-out: MIC, 29213.
Assay [4] deals with quinolone resistant E. coli LZ3111. In words: Antibacterial activity, MIC, quinolone resistant E. coli LZ3111. In kind it is cell-based, Escherichia coli. As to conditions: Escherichia coli, read-out: MIC, LZ3111. From the text:
(§1) The antibacterial activity from a microbroth dilution method may be presented as the minimum inhibitory concentration (MIC in […]). The MIC value is the lowest concentration of a drug which prevents macroscopically visible bacterial growth under test conditions.
Mutations in these regions are known to confer a high level resistance to the quinolone class of antibiotics.

The test system of assay [5] is Acinetobacter baumannii (A. baumannii) BAA747. In words: Antibacterial activity, MIC, A. baumannii BAA747. In kind it is cell-based. The conditions noted are these: Acinetobacter baumannii; A. baumannii BAA747; read-out: MIC BAA747.
The test system of assay [6] is Klebsiella pneumoniae (K. pneumoniae) 35657. In words: Antibacterial activity, MIC, K. pneumoniae 35657. It counts as cell-based. As to conditions: Klebsiella pneumoniae.
In assay [7] the test system is resistant A. baumannii MXX2240 (MDR clinical isolate). The assay is described as follows: Antibacterial activity, MIC, resistant A. baumannii MXX2240. In kind it is cell-based, Acinetobacter baumannii. As to conditions: Acinetobacter baumannii, resistant A. baumannii MMX2240, MDR clinical isolate; read-out: MIC MMX2240.
Assay [8] has as its system resistant K. pneumoniae MXX1232 (MDR clinical isolate). The assay is described as follows: Antibacterial activity, MIC, resistant K. pneumoniae MXX1232. In kind it is cell-based, Klebsiella pneumoniae. As to conditions: Klebsiella pneumoniae; resistant K. pneumoniae MMX1232, MDR clinical isolate; read-out: MIC MMX1232.
The test system of assay [9] is Pseudomonas aeruginosa (P. aeruginosa) 27853. The assay is described as follows: Antibacterial activity, MIC, P. aeruginosa 27853. In kind it is cell-based. As to conditions: Pseudomonas aeruginosa, P. aeruginosa 27853; read-out: MIC 27853.
Excerpt: as §1
Antibacterial activity of test compounds against the Gram-negative bacterium Pseudomonas aeruginosa (P. aeruginosa) 27853 is shown in Table 5.

Assay [10] relates to E. coli ELZ4000 (MDR clinical isolate). In words: Antibacterial activity, MIC, MDR E. coli ELZ4000. In kind it is cell-based, Escherichia coli. The conditions noted are these: Escherichia coli; E. coli ELZ4000, MDR clinical isolate; read-out: MIC ELZ4000.
Assay [11] relates to E. coli ELZ4251 (MDR clinical isolate). In words: Antibacterial activity, MIC, MDR E. coli ELZ4251. It counts as cell-based, Escherichia coli. The conditions noted are these: Escherichia coli, E. coli ELZ4251, MDR clinical isolate; read-out: MIC ELZ4251.
Assay [12] has as its system Haemophilus influenzae (H. influenzae) 49247. In words: Antibacterial activity, MIC, H. influenzae 49247. It counts as cell-based. As to conditions: Haemophilus influenzae; H. influenzae 49247; read-out: MIC 49247. An outline of the steps:
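A microbroth dilution method gave the minimum inhibitory concentration for each compound against H. influenzae 49247, a Gram-negative bacterium. MIC means the smallest concentration of drug at which no macroscopically visible bacterial growth appears under the conditions of the test.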

For assay [13], the system named is Moraxella catarrhalis (M. catarrhalis) 25238. The assay is described as follows: Antibacterial activity, MIC, M. catarrhalis 25238. In kind it is cell-based. As to conditions: Moraxella catarrhalis, M. catarrhalis 25238; read-out: MIC 25238.
Assay [14] deals with Neisseria meningitidis (N. meningitidis) 13090. In words: Antibacterial activity, MIC, N. meningitidis 13090. It counts as cell-based. As to conditions: Neisseria meningitidis; N. meningitidis 13090; read-out: MIC 13090.

Molecules are shown by their SMILES. In brackets after ≈: the same amount, converted by molar mass.

For `CCc1c(-c2ccc(C3CCN(C)CC3)cc2)[nH]c(=O)c(C(=O)O)c1O` [Cpd 338, 5-ethyl-4-hydroxy-6-(4-(1-methylpiperidin-4-yl)phenyl)-2-oxo-1,2-dihydropyridine-3-carboxylic acid], the MIC in assay [1], in assay [2], in [3], in [4], in assay [5] and in assay [6] was 12.5 to 150 µg/mL (≈ 35.1 to 421 µM) in each case. For the same molecule, the MIC in assay [7], in assay [8] and in [9] was 12.5 to 150 µg/mL (≈ 35.1 to 421 µM) in each case.
On to `CCc1c(-c2ccc(OC)cc2)[nH]c(=O)c(C(=O)O)c1O` [Cpd 25, 5-ethyl-4-hydroxy-6-(4-methoxyphenyl)-2-oxo-1,2-dihydropyridine-3-carboxylic acid], for which the MIC is under 1 µg/mL in assay [1]; 3.5 to 12.5 µg/mL (≈ 12.1 to 43.2 µM) in assay [2]; 12.5 to 150 µg/mL (≈ 43.2 to 519 µM) in [3]; 12.5 to 150 µg/mL (≈ 43.2 to 519 µM) in assay [4]; 12.5 to 150 µg/mL (≈ 43.2 to 519 µM) in assay [10]; 12.5 to 150 µg/mL (≈ 43.2 to 519 µM) in assay [11]. The results for the MIC in [5], in assay [7] and in [8] were 3.5 to 12.5 µg/mL (≈ 12.1 to 43.2 µM), 1 to 3.5 µg/mL (≈ 3.46 to 12.1 µM) and 12.5 to 150 µg/mL (≈ 43.2 to 519 µM), respectively.
`CCc1cc(C(=O)O)c(=O)[nH]c1-c1ccc(N2CCC(c3ccncc3)C2)cc1` (stereo not shown) [Cpd 226, 5-ethyl-2-oxo-6-{4-[3-(pyridin-4-yl)pyrrolidin-1-yl]phenyl}-1,2-dihydropyridine-3-carboxylic acid]: the MIC was under 1 µg/mL in assay [1]; 1 to 3.5 µg/mL (≈ 2.57 to 8.99 µM) in assay [2]; 3.5 to 12.5 µg/mL (≈ 8.99 to 32.1 µM) in assay [3]; 12.5 to 150 µg/mL (≈ 32.1 to 385 µM) in assay [4]; 1 to 3.5 µg/mL (≈ 2.57 to 8.99 µM) in assay [5]; 3.5 to 12.5 µg/mL (≈ 8.99 to 32.1 µM) in [6]. Further, the MIC in assay [7], in [8] and in [9] was 12.5 to 150 µg/mL (≈ 32.1 to 385 µM) throughout.
On to `CN(C)c1ccc(-c2[nH]c(=O)c(C(=O)O)c(O)c2CC(O)CO)cc1` (stereo not shown) [Cpd 329, 5-(2,3-dihydroxypropyl)-6-(4-(dimethylamino)phenyl)-4-hydroxy-2-oxo-1,2-dihydropyridine-3-carboxylic acid], for which the MIC in assay [1] lay in the range of 12.5 to 150 µg/mL (≈ 35.9 to 431 µM); in [2], 12.5 to 150 µg/mL (≈ 35.9 to 431 µM); in [3], 12.5 to 150 µg/mL (≈ 35.9 to 431 µM); in assay [4], 3.5 to 12.5 µg/mL (≈ 10 to 35.9 µM); in [5], 12.5 to 150 µg/mL (≈ 35.9 to 431 µM); in assay [6] it was 12.5 to 150 µg/mL (≈ 35.9 to 431 µM). Further, the MIC in assay [7], in assay [8] and in assay [9] was 12.5 to 150 µg/mL (≈ 35.9 to 431 µM) in each case.
For the molecule `CCc1c(-c2ccc(N3CC[C@@H](O)C3)cc2)[nH]c(=O)c(C(=O)O)c1O` [Cpd 124, 5-ethyl-4-hydroxy-6-{4-[(3R)-3-hydroxypyrrolidin-1-yl]phenyl}-2-oxo-1,2-dihydropyridine-3-carboxylic acid], the MIC in assay [1] is under 1 µg/mL; in assay [2], under 1 µg/mL; in [3] it was 1 to 3.5 µg/mL (≈ 2.9 to 10.2 µM); in [4] it was 12.5 to 150 µg/mL (≈ 36.3 to 436 µM); in assay [10], 12.5 to 150 µg/mL (≈ 36.3 to 436 µM); in assay [11], 12.5 to 150 µg/mL (≈ 36.3 to 436 µM). Further, the MIC was under 1 µg/mL in assay [5]; 12.5 to 150 µg/mL (≈ 36.3 to 436 µM) in assay [7]; 12.5 to 150 µg/mL (≈ 36.3 to 436 µM) in assay [8]; under 1 µg/mL in assay [12]; under 1 µg/mL in assay [13]; under 1 µg/mL in assay [14].
Turning to `CCc1c(-c2ccc(N3CCC(O)C3)cc2)[nH]c(=O)c(C(=O)O)c1O` (stereo not shown) [Cpd 126, 5-ethyl-4-hydroxy-6-[4-(3-hydroxypyrrolidin-1-yl)phenyl]-2-oxo-1,2-dihydropyridine-3-carboxylic acid], the MIC in assay [1] is under 1 µg/mL; in [2], under 1 µg/mL; in [3], 1 to 3.5 µg/mL (≈ 2.9 to 10.2 µM); in assay [4] it was 12.5 to 150 µg/mL (≈ 36.3 to 436 µM); in assay [10] it was 12.5 to 150 µg/mL (≈ 36.3 to 436 µM); in [11], 12.5 to 150 µg/mL (≈ 36.3 to 436 µM). Besides, the MIC in assay [5] was under 1 µg/mL; in assay [7], 12.5 to 150 µg/mL (≈ 36.3 to 436 µM); in [8] it was 12.5 to 150 µg/mL (≈ 36.3 to 436 µM); in [9] it was 3.5 to 12.5 µg/mL (≈ 10.2 to 36.3 µM); in assay [12] it was under 1 µg/mL; in [13], under 1 µg/mL. Further, in assay [14], the MIC was under 1 µg/mL.

Source of the values: patent US9650395B2, “Antibacterial compounds and methods for use” (PTC Therapeutics, Inc., priority 2011, dated 2017).
